From US11440886B2, “Anti-inflammatory compound, and preparation and use thereof” (E-Nitiate Biopharmaceuticals (Hangzhou) Co., Ltd., priority 2018, dated 2022)

target: human recombinant PDE4B1 enzyme (Homo sapiens (Human), UniProt Q07343); assay: Inhibition of PDE4B1 activity by cAMP HTRF assay; format: biochemical; details: human recombinant PDE4B1, cAMP 40 nM, pH 7.4
Experimental: Determination of the inhibition of the compounds on PDE4B1 activity by using cAMP HTRF® assay
The inhibitory effect of the compounds on human PDE4B1 enzyme activity was determined by quantifying the 5′-adenosine monophosphate (5′-AMP) formed from 3′,5′-cyclic adenosine monophosphate (cAMP).
The test compound or water (control) and human recombinant PDE4B1 enzyme (4.8 U) were mixed in a buffer solution (pH 7.4) consisting of 1× Hanks' balanced salt solution (HBSS), 5 mM HEPES, 3 mM MgCl2, and 0.1% BSA and incubated for 10 min. A cAMP enzyme substrate (final concentration 40 nM) was added, and the mixture was incubated at room temperature for 60 min. Then a fluorescent acceptor (Dye2 labeled with cAMP), a fluorescent donor (anti-cAMP antibody labeled with europium cryptate) and a non-specific phosphodiesterase inhibitor IBMX (3-isobutyl-1-methyl xanthine; final concentration 1 mM) were added. After 60 min, the fluorescence transfer related to the amount of remaining cAMP was measured on a microplate reader (Rubystar, BMG) at λex=337 nm, λem=620 nm and λem=665 nm. The enzyme activity is calculated from the ratio of the signals measured at 665 nm and 620 nm. The results are expressed as percent inhibition of the enzyme activity of the control (without PDE4 inhibitor). The enzyme was omitted for measurement of the basic control. The IC50 value (IC50=the concentration that caused the half-maximum inhibition of the specific activity of the control) is derived from dose-response measurements with eight different concentrations (n=2; repeated 2 times)

Chain of human recombinant PDE4B1 enzyme (Q07343 whole entry): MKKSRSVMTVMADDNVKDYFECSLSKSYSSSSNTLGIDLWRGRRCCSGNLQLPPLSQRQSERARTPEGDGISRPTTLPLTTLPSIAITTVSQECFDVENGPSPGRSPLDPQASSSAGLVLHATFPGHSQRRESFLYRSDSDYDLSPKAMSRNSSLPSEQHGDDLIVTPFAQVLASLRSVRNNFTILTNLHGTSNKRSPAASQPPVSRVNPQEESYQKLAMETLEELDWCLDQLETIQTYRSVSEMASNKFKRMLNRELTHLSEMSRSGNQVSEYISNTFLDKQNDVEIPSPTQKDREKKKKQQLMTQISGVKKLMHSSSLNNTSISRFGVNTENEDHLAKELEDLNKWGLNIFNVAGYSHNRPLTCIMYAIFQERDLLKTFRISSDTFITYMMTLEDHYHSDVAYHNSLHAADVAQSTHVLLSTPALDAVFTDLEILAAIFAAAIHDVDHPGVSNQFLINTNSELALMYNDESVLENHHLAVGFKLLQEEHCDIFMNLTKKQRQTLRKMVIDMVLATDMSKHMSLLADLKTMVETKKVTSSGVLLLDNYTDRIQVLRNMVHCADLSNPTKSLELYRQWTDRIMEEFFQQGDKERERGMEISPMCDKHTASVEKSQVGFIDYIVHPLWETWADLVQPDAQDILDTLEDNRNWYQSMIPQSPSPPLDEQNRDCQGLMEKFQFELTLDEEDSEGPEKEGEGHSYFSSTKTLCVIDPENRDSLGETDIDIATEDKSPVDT

| Structure (SMILES) | IC50 |
| --- | --- |
| COc1ccc(C(=O)Cn2c(C)cc(=O)cc2C)cc1OC(C)C [Example 14, 1-(2-(3-isopropoxy-4-methoxyphenyl)-2-oxoethyl)-2,6-dimethylpyridin-4(1H)-one] | 0.021 µM |
| COc1ccc(/C=C/n2c(C)cc(=O)cc2C)cc1OC1CC1 [Example 58, (E)-1-(3-cyclopropyloxy-4-methoxystyryl)-2,6-dimethylpyridin-4(1H)-one] | 0.0055 µM |
| COc1ccc(/C=C(\C(=O)N(C)C)n2c(C)cc(=O)cc2C)cc1OCC1CC1 [Example 118] | 0.32 µM |
| COc1ccc(/C=C/n2c(C)cc(=O)cc2C)cc1O[C@@H]1CCSC1 [Example 85, (R,E)-1-(3-(tetrahydrothiophen-3-yl)oxy-4-methoxystyryl)-2,6-dimethylpyridin-4(1H)-one] | 0.0038 µM |
| COc1ccc(/C=C/n2c(C)cc(=O)cc2C)cc1O[C@H]1CC[S+]([O-])C1 (single isomer, unassigned) [Example 83-1] | 0.55 µM |
| COc1ccc(/C=C/n2c(C)cc(=O)cc2C)cc1O[C@@H]1CC[S+]([O-])C1 (single isomer, unassigned) [Example 86-2] | 0.081 µM |
| COc1ccc(/C=C/n2c(C)cc(=O)cc2C)cc1OC1CCC1 [Example 61, (E)-1-(3-cyclobutyloxy-4-methoxy-styryl)-2,6-dimethylpyridin-4(1H)-one] | 0.0062 µM |
| Cc1cc(=O)cc(C)n1/C=C/c1ccc(OC(F)F)c(O[C@@H]2CC[S+]([O-])C2)c1 (single isomer, unassigned) [Example 101-1] | 0.099 µM |
| COc1ccc(/C(Cn2c(C)cc(=O)cc2C)=N\OCSC)cc1OCC1CC1 [Example 42, (E)-1-(2-(3-cyclopropylmethoxy-4-methoxyphenyl)-2-(methylthiomethoxyimido)ethyl)-2,6-dimethylpyridin-4(1H)-one] | 0.0082 µM |
| COc1ccc(C(=O)Cn2c(C)cc(=O)cc2C)cc1OCS(C)(=O)=O [Example 34, 1-(2-(3-methylsulfonemethoxy-4-methoxyphenyl)-2-oxoethyl)-2,6-dimethylpyridin-4(1H)-one] | 0.42 µM |
| COc1ccc(C(=O)Cn2c(C)cc(=O)cc2C)cc1OC1CCCCC1 [Example 24, 1-(2-(3-cyclohexyloxy-4-methoxyphenyl)-2-oxoethyl)-2,6-dimethylpyridin-4(1H)-one] | 0.023 µM |
| CC#C/C(=C\n1c(C)cc(=O)cc1C)c1ccc(OC(F)F)c(OCC2CC2)c1 [Example 114, (Z)-1-(2-(3-cyclopropylmethoxy-4-difluoromethoxyphenyl)pent-1-en-3-yn-1-yl)-2,6-dimethylpyridin-4(1H)-one] | 0.0016 µM |
| COc1ccc(/C(Cn2c(C)cc(=O)cc2C)=N/OCSC)cc1OCC1CC1 [Example 41, (Z)-1-(2-(3-cyclopropylmethoxy-4-methoxyphenyl)-2-(methylthiomethoxyimido)ethyl)-2,6-dimethylpyridin-4(1H)-one] | 0.00122 µM |
| C#CCOc1cc(C(=O)Cn2c(C)cc(=O)cc2C)ccc1OC [Example 28, 1-(2-(3-propargyloxy-4-methoxyphenyl)-2-oxoethyl)-2,6-dimethylpyridin-4(1H)-one] | 0.092 µM |
| CCOC(=O)/C(=C\n1c(C)cc(=O)cc1C)c1ccc(OC)c(OCC2CC2)c1 [Example 113, (Z)-ethyl 2-(3-cyclopropylmethoxy-4-methoxyphenyl)-3-(2,6-dimethyl-4-carbonylpyridin-1(4H)-yl)-acrylate] | 0.17 µM |
| C#CCOc1cc(/C=C/n2c(C)cc(=O)cc2C)ccc1OC [Example 66] | 0.27 µM |
| COc1ccc(C(=O)Cn2ccc(=O)cc2)cc1OCC1CC1 [Example 45, 1-(2-(3-cyclopropylmethoxy-4-methoxyphenyl)-2-oxoethyl)pyridin-4(1H)-one] | 0.17 µM |
| CCCCOc1cc(C(=O)Cn2c(C)cc(=O)cc2C)ccc1OC [Example 15, 1-(2(3-n-butoxy-4-methoxyphenyl)-2-oxoethyl)-2,6-dimethylpyridin-4(1H)-one] | 0.033 µM |
| COc1ccc(C(=O)Cn2c(C)cc(=O)cc2C)cc1OCCSC [Example 35, 1-(2-(3-methylthioethoxy-4-methoxyphenyl)-2-oxoethyl)-2,6-dimethylpyridin-4(1H)-one] | 0.032 µM |
| CCCOc1cc(/C=C/n2c(C)cc(=O)cc2C)ccc1OC [Example 53, (E)-1-(3-propoxy-4-methoxystyryl)-2,6-dimethylpyridin-4(1H)-one] | 0.015 µM |
| CCCCCOc1cc(C(=O)Cn2c(C)cc(=O)cc2C)ccc1OC [Example 17, 1-(2-(3-n-pentyloxy-4-methoxyphenyl)-2-oxoethyl)-2,6-dimethylpyridin-4(1H)-one] | 0.016 µM |

| Structure (SMILES) | IC50 |
| --- | --- |
| COc1ccc(C(=O)Cn2c(C)cc(=O)cc2C)cc1OCCS(C)(=O)=O [Example 37, 1-(2-(3-methylsulfoneethoxy-4-methoxyphenyl)-2-oxoethyl)-2,6-dimethylpyridin-4(1H)-one] | 0.51 µM |
| COc1ccc(/C=C/n2c(C)cc(=O)cc2C)cc1O[C@@H]1CCS(=O)(=O)C1 [Example 87, (R,E)-1-(3-((1,1-dioxotetrahydrothiophen-3-yl)oxy)-4-methoxy-styryl)-2,6-dimethylpyridin-4(1H)-one] | 0.078 µM |
| COc1ccc(/C=C/n2c(C)cc(=O)cc2C)cc1OCC=C(C)C [Example 65, (E)-1-((3-(3-methylbut-2-en-1-yl)oxy-4-methoxy)-styryl)-2,6-dimethylpyridin-4(1H)-one] | 0.52 µM |
| COc1ccc(/C=C/n2ccc(=O)cc2)cc1OCC1CC1 [Example 50, (E)-1-(3-cyclopropylmethoxy-4-methoxystyryl)pyridin-4(1H)-one] | 0.18 µM |
| COc1ccc(/C=C/n2c(C)cc(=O)cc2C)cc1OC1CCCC1 [Example 62, (E)-1-((3-cyclopentyloxy-4-methoxy)-styryl)-2,6-dimethylpyridin-4(1H)-one] | 0.0102 µM |
| C=CCOc1cc(C(=O)Cn2c(C)cc(=O)cc2C)ccc1OC [Example 26, 1-(2-(3-allyloxy-4-methoxyphenyl)-2-oxoethyl)-2,6-dimethylpyridin-4(1H)-one] | 0.039 µM |
| COc1ccc(/C=C/n2c(C)cc(=O)cc2C)cc1OC[S+](C)[O-] (centres unmarked) [Example 75, (E)-1-(3-methylsulfoxidemethoxy-4-methoxystyryl)-2,6-dimethylpyridin-4(1H)-one] | 0.29 µM |
| COc1ccc(/C=C/n2c(C)cc(=O)cc2C)cc1O[C@H]1CCS(=O)(=O)C1 [Example 84, (S,E)-1-(3-((1,1-dioxotetrahydrothiophen-3-yl)oxy)-4-methoxy-styryl)-2,6-dimethylpyridin-4(1H)-one] | 0.23 µM |
| COc1ccc(/C=C/n2c(C)cc(=O)cc2C)cc1OC1COC1 [Example 68, (E)-1-((3-(oxacyclobutan-3-yl-oxy)-4-methoxy)-styryl)-2,6-dimethylpyridin-4(1H)-one] | 0.027 µM |
| C=CCOc1cc(/C=C/n2c(C)cc(=O)cc2C)ccc1OC [Example 64, (E)-1-(3-allyloxy-4-methoxy-styryl)-2,6-dimethylpyridin-4(1H)-one] | 0.043 µM |
| COc1ccc(/C=C/n2c(C)cc(=O)cc2C)cc1OC(C)C [Example 54, (E)-1-(3-isopropoxy-4-methoxystyryl)-2,6-dimethylpyridin-4(1H)-one] | 0.026 µM |
| COc1ccc(C(=O)Cn2c(C)cc(=O)cc2C)cc1OC1CCC1 [Example 21, 1-(2-(3-cyclobutyloxy-4-methoxyphenyl)-2-oxoethyl)-2,6-dimethylpyridin-4(1H)-one] | 0.0046 µM |
| COc1ccc(/C=C/n2c(C)cc(=O)cc2C)cc1O[C@H]1CC[S+]([O-])C1 (single isomer, unassigned) [Example 83-2] | 0.106 µM |
| COc1cc(/C=C/n2c(C)cc(=O)cc2C)ccc1OC(F)F [Example 89, (E)-1-(3-methoxy-4-difluoromethoxy-styryl)-2,6-dimethylpyridin-4(1H)-one] | 0.0069 µM |
| COc1ccc(/C(C#N)=C/n2c(C)cc(=O)cc2C)cc1OC [Example 115] | 0.0099 µM |
| COc1ccc(C(=O)Cn2ccc(=O)cc2Cl)cc1OCC1CC1 [Example 47, 1-(2-(3-cyclopropylmethoxy-4-methoxyphenyl)-2-oxoethyl)-2-chloropyridin-4(1H)-one] | 0.0071 µM |
| Cc1cc(=O)cc(C)n1/C=C/c1ccc(OC(F)F)c(OCS(C)(=O)=O)c1 [Example 92, (E)-1-(3-methylsulfonemethoxy-4-difluoromethoxy-styryl)-2,6-dimethylpyridin-4(1H)-one] | 0.094 µM |
| Cc1cc(=O)cc(C)n1/C=C/c1ccc(OC(F)F)c(O[C@H]2CCS(=O)(=O)C2)c1 [Example 99, (S,E)-1-(3-(1,1-dioxotetrahydrothiophen-3-yl)oxy-4-difluoromethoxystyryl)-2,6-dimethylpyridin-4(1H)-one] | 0.059 µM |
| COc1ccc(C(Cn2c(C)cc(=O)cc2C)OC(=O)C=C(C)C)cc1OCC1CC1 (centres unmarked) [Example 7, (1-(3-cyclopropylmethoxy-4methoxyphenyl)-2-(2,6-dimethyl-4-carbonylpyridin-1(4H)-yl)ethyl) 3-methylcrotonate] | 0.0057 µM |
| COc1ccc(/C=C/n2c(C)cc(=O)cc2C)cc1OCS(C)(=O)=O [Example 76, (E)-1-(3-methylsulfonemethoxy-4-methoxystyryl)-2,6-dimethylpyridin-4(1H)-one] | 0.105 µM |
